Bridge positions count the residues as written; N and C are the ends. Square brackets hold non-standard residues; d marks the D form. Peptide text beside a SMILES is read from it. R5 = C=CCCC[C@@](C)(N)C(=O)O
Key:
A. baumannii [1] = assay: NPN membrane permeabilization assay; type: cell-based, Acinetobacter baumannii; details: 25 μM, 10^8 CFU/mL
Protocol: (§1) Mid-log-phase bacterial cells (A. baumannii) were resuspended in 10 mM PBS (pH 7.4) to a density of 10^8 CFU/mL. The cell suspension was supplemented with 25 mM glucose followed by 15 min incubation at 37°C. After the incubation, N-phenyl-1-naphthylamine dye was added to a final concentration of 10 μM. Next, 90 μL of bacterial cells was transferred to a 96-well black plate, and fluorescence was recorded for 40 min (excitation/emission: 350/420 nm). […] After this treatment, fluorescence was recorded for an additional 20 min ([53]). Data are presented as fluorescence values as a function of time. Permeabilization of blank- and test compound-treated cells was compared. For the PI membrane permeabilization assay, 10^8 bacterial cells (A. baumannii) were resuspended in MHB containing 20 μg/mL PI. […] Fluorescence was read (excitation/emission: 584/620 nm). Fluorescence values of blank- and compound-treated cells were graphed as a function of time ([54], [55]).

Staphylococcus aureus = type: cell-based
Protocol: The antimicrobial assay was performed according to a modified National Committee for Clinical Laboratory Standards (NCCLS) protocol ([41], [42]). Briefly, 5 × 10^5 CFU/mL bacterial cells were treated with various peptide concentrations and incubated at 37 ± 2°C for 16 to 20 h. The lowest concentration with clear wells was recorded as the MIC for each test molecule. The clear wells were further plated in Mueller-Hinton agar (MHA) plates, followed by incubation overnight at 37 ± 2°C. After plating, the lowest concentration at which no growth was observed was recorded as the MBC. For the serum sensitivity assay, the antimicrobial activity of the peptides was tested in medium containing 50% human serum ([43], [44]).

female C57BL/6 mice = assay: In vivo toxicity
Protocol: The in vivo toxicity of TP4-3 was assessed in female C57BL/6 mice (BioLasco, Ilan, Taiwan) upon intravenous administration of TP4-3 (9, 45, and 60 mg/kg). […] All animals were monitored for 7 days. The number of dead animals and animal body weights were measured every 24 h. Seven days after the drug administration, blood samples were collected, and the animals were euthanized. ALT (GPT), AST (GOT), CRE, and BUN were analyzed using a dry-chemistry analyzer (Fujifilm DRI-CHEM 4000i) and commercially available kits (Fujifilm Corp., Tokyo, Japan) ([23], [54]). All animal experiments were approved by the institutional ethical committee (IACUC, Academia Sinica; ID no. 2021-12-1577 and 2021-12-1771).

A. baumannii [2] = assay: PI membrane permeabilization assay; type: cell-based, Acinetobacter baumannii; details: 25 μM, 10^8 CFU/mL
Protocol: as §1

human red blood cells = type: cell-based
Procedure, shortened: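 Healthy human blood as a 2% cell suspension in normal saline was mixed 1:1 with peptide at graded concentrations and held at 37 ± 2°C for 1 h. After centrifugation, supernatant absorbance at 540 nm gave percent hemolysis relative to controls.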

A. baumannii [3] = assay: DiBAC4(3) membrane depolarization assay; type: cell-based, Acinetobacter baumannii; details: compared to the blank control
Protocol: Mid-log-phase A. baumannii bacterial cells were suspended in 10 mM PBS (pH 7.4) at a density of 10^8 CFU/mL. The cell suspension was then supplemented with 25 mM glucose, followed by 15 min incubation at 37°C. Then, the cell suspension was mixed with 500 nM DiBAC4(3) and incubated for 50 min. After incubation, 90 μL of the cell suspension was transferred to a 96-well plate, and fluorescence was recorded (excitation/emission: 480/520 nm) until the signal stabilized (~40 min). […] Data for blank- and compound-treated groups were compared by plotting fluorescence as function of time ([56]).

With CC[C@H](C)[C@H](NC(=O)[C@@H](NC(=O)[C@@H](N)Cc1ccccc1)[C@@H](C)CC)C(=O)N[C@]1(C)CCCC=CCCC[C@](C)(C(=O)NCC(=O)N[C@@H](CC(C)C)C(=O)N[C@@H](Cc2ccccc2)C(=O)N[C@@H](CCCCN)C(=O)N[C@@H](CCCCN)C(=O)N[C@@H](CCCCN)C(=O)N[C@@H](C)C(=O)NCC(=O)N[C@@H](C)C(=O)N[C@]2(C)CCCC=CCCC[C@](C)(C(=O)N[C@H](C(=O)N[C@@H](CCCCN)C(=O)N[C@@H](CCCCN)C(=O)O)[C@@H](C)CC)NC(=O)[C@H](CCCCN)NC(=O)[C@H](CCCCN)NC(=O)[C@H](CCCCN)NC2=O)NC(=O)[C@H](CO)NC(=O)[C@H](CCCCN)NC(=O)[C@H](CCCCN)NC1=O [TP4-3] (H-FII[R5]KKS[R5]GLFKKKAGA[R5]KKK[R5]IKK-OH; staple 4-8, 18-22; N-terminus and C-terminus assumed) the “NPN fluorescence signal vs controls” value (A. baumannii [1]) was ~4 fold, the MBC (Staphylococcus aureus) was >25 µM and the MIC (Staphylococcus aureus) was >25 µM. For the same compound, the “time to death after treatment” value (female C57BL/6 mice; 60 mg/kg i.v.) was ≤ 10 min, the body weight (female C57BL/6 mice; i.v. 9 or 45 mg/kg, 7 days) was “No significant changes in body weight” and the survival (female C57BL/6 mice; i.v. doses of 9 or 45 mg/kg, 7 days) was “All treated animals survived”. The “kidney (BUN, CRE) and liver (GOT, GPT) function markers” value (female C57BL/6 mice; i.v., TP4-3 up to 45 mg/kg, meropenem 10 mg/kg, day 7) was “no obvious effects”, the “PI fluorescence signal vs controls” value (A. baumannii [2]) was “approximately 3 fold” and the 15% hemolysis concn (human red blood cells) was >100 µM. The “DiBAC4(3) fluorescence signal (membrane depolarization)” value (A. baumannii [3]) was “substantial rise in the fluorescence signal”.

Reference: publication PMC10101059, “Rational Design of Stapled Antimicrobial Peptides to Enhance Stability and In Vivo Potency against Polymicrobial Sepsis” (Microbiology Spectrum, 2023)
